These results are taken from US20100226900A1, “PREVENTION AND TREATMENT OF OSTEOCHONDROSIS IN ANIMALS AND HUMANS” (U.S. Borax Inc., priority 2005, published 2010).

The test system of one test is sows and piglets. The format is in vivo. Here is the method: Boron was added to the diet of sows at 1 mg/kg body weight as boric acid. […] Among a group of 95 piglets the birth to weaning mortality was 2 piglets. The usual mortality for this farm was about 5 to 7%. These piglets remained on boron 50 ppm plus ascorbate 125 ppm. One pig was euthanized and examined at a weight of about 85 pounds. […] All bones of the appendicular skeleton were sectioned on the band saw.

The next test concerns pigs. To be noted: about 100 pigs, 50 ppm boron as boric acid. From the text:
An Iowa farm treated a group of about 100 pigs with 50 ppm boron as boric acid.

Test [1] deals with gestating and lactating sows and their piglets. In words: Reproductive effects in sows: observation and preliminary pilot study (Example 3).
Experimental: Sows were fed a standard corn-soy diet. Half of the sows received an oral administration of a boron supplement to provide 1 mg boron per kg body weight.
Test [2] deals with growing swine (osteochondrosis). In words: Boron supplementation and OC-associated lameness in growing swine (Example 1). The format is in vivo, pig. As for the experimental part: The basal diet consisted of commercial corn-soy diet containing 10 ppm boron.
Test diet group B was fed a basal diet plus 25 mg/kg boron as sodium borate decahydrate (borax). Test diet group A was fed a basal diet plus 25 mg/kg boron as sodium borate decahydrate (borax) and 250 mg/kg ascorbic acid.
Pigs were weighed at the beginning of the study, 4 weeks later and every 3 weeks until the end of the study. Animals were scored for soundness on a 5-point scale at each weighing. (Five-point scale: 1=no soundness defects; 2=minor soundness issues but still sound enough for retention as breeding animal; 3=not sound enough for retention for breeding but still marketable; 4=unsound, likely to be rejected at slaughter; 5=severely lame, requiring euthanasia for humane reasons.) Grading was done by the caretaker and the investigator at all weighing times. An experienced independent treatment-blind rater also evaluated the soundness of each animal and the ratings he provided were compared with the ratings of the caretaker and investigator by use of Cohen's Kappa test.
The animals were housed in a modern curtain sided barn with deep straw bedding, with ad libitum access to feed and water. Waterers and feeders were on a concrete pad but the remainder of the flooring was deep straw over a ground limestone and sand base. Floor space allowances exceeded the recommendations of the Guide for the Care and Use of Agricultural Animals in Agricultural Research and Teaching, First Revised Edition, 1999. Federation of Animal Science Societies. Savoy, Ill.
The basal diet (no boron supplemented) was analysed and found to contain boron at the rate of 10 ppm which is typical for a corn-soybean meal based diet.
At the end of the study the pigs were transported to a laboratory where they were euthanized and necropsied. Six pigs in each of group B and group A were put on the control diet for 7 days at the end of the study.
At necropsy, samples of liver, heart, kidney, fat, skeletal muscle, proximal tibia, blood, and the rostral snout were retained and frozen at −40° C. prior to chemical analysis. All joints of the axial skeleton were evaluated for the presence of gross lesions of osteochondrosis and graded on a 5 point scale. (5-point scale: 1=no gross abnormalities; 2=minor imperfections in articular conformation or articular reddening present but no cartilage erosions; 3=cartilage intact but surface irregularities of the cartilage are present; 4=fissuring or erosion of articular cartilage is obvious; 5=full thickness cartilage lesions or cartilage flaps, osteochondritis dissecans obviously present).
The proximal femur (femoral head) and articular surfaces and growth plates associated with the stifle, hock, shoulder, elbow and carpus were sectioned with a band saw and approx. 0.5 to 1.0 cm sections fixed in formalin. Bone sections were decalcified with formic acid/sodium citrate, embedded in paraffin and sectioned at 5 microns. Sections were deparaffinized according to standard procedures. Two sections were made from each joint and growth plate and stained with either hematoxylin/eosin (H&E) or with toluidine blue (pH 4)/fast green for evaluation of the articular cartilage, subchondral bone and growth plate.
Mean joint lesion scores, growth rate and soundness scores by treatment and by factors boron and ascorbate were compared using an analysis of variance and t-test as appropriate. Soundness scores were dichotomised into binary categorical variables for lameness (soundness score>2) and for absence of defects (soundness<2), and the binary variables analysed by chi-square and logistic regression.
Tissue specimens stained with H&E were examined microscopically for the presence of lesions of osteochondrosis. Toluidine Blue staining allowed assessment of retention or loss of proteoglycan from the extracellular matrix (ECM) of the cartilage. Each tissue section was scored by a treatment-blind board-certified pathologist. […]

The subject of a further test is crossbred pigs. In words: 28-day feeding trial: phosphorus digestibility and excretion, feed conversion (Example 4). The format is in vivo, pig. As for the experimental part: Pigs were randomly allocated to 24 pens of 6 pigs per pen in a thermoneutral controlled environment barn with steel grid flooring. Each pen was equipped with a single-hole feeder. Water was available free-choice from a nipple drinker. […] Feces were collected on the last 3 days of the study from each pen and a pooled aliquot was dried and submitted for chemical analysis. Yttrium oxide was added to the diet at 0.05% and served as a marker for phosphorus digestibility. Pig growth and feed consumption was measured at the end of the study with the pen as the experimental unit. Data was analyzed for effects of boron and calcium by univariate and multivariate analysis of variance and t-tests.

The test system of test [3] is pigs (boron crosslinks, osteochondrosis).
Experimental: The pigs were evaluated for lameness daily and euthanatized on day 13 and the joints and other organs were examined.
In a further test the test system is sows and their litters. In words: Sow and litter trial in a commercial swine operation during a PRRSV outbreak (Example 3). The format is in vivo, pig. The conditions noted are these: sows given oral 1 mg boron per pound BW per day. Here is the method:
To test the effect of boron on sows and their litters, a trial was established in a large commercial swine operation during an outbreak of porcine viral reproductive and respiratory disease (PRRSV). Boron was administered orally to a group of 51 sows individually housed in crates at the rate of 1 mg boron per pound BW per day beginning 1 week prior to farrowing and continuing until the piglets were weaned at 14 days of age. […] Boron treatment was supplied as a single daily dosing and was discontinued at weaning. All sows were fed a standard commercial sow diet.

Test [4] deals with sulfated glycosaminoglycan (sGAG) of cartilage. In words: Glycosaminoglycan study: sGAG in articular cartilage plugs of fed pigs (Example 2). The format is in vivo, pig. To be noted: pigs fed 50 ppm boron; hock and elbow joints; unsupplemented 5045 ng/g; p<0.01. Here is the method:
Hock joints and elbow joints were obtained at necropsy from pigs in two feeding groups: one group having been fed a commercial ration supplemented with 50 mg B/kg feed and the other being fed only the standard commercial pig ration.
Cartilage plugs were harvested from the articular surfaces of 40 hock and elbow joints using a #5 (10.5 mm) cork borer. The samples were papain digested and analyzed for concentration of sulfated glycosaminoglycan (sGAG) using a spectrophotometric microplate analysis procedure adapted from Farndale, et al (1986), using a chondrotin sulfate standard. This method measures total sulfated glycosaminoglycan, most of which is chondrotin sulfate and keratan sulfate components of aggrecan. Aggrecan is the large aggregating proteoglycan of cartilage responsible for creating and maintaining the osmotic pressure of cartilage. Quanititation of sGAG concentration thus provides a measure of the weight-bearing and anti-friction properties of cartilage and is a measure of cartilage quality and durability.

[5] abbreviates: sows fed 50 ppm supplemental boron, late gestation and early lactation.
Setting [6] is: boron 50 ppm in feed, 3-NPB none, 5 pigs.

For `OB(O)O` [boric acid], the “Birth to weaning mortality” value in the test with sows and piglets (among a group of 95 piglets, usual mortality of the farm about 5 to 7%) came out at 2 piglets. In addition, the “Outcome in three noticeably and seriously lame sows” value in the test on sows and piglets (sows, boron 1 mg/kg body weight as boric acid in diet) is on record as “became perfectly sound”. In addition, the Growth rate result in the test on pigs is reported as “excellent growth rate”. In addition, the Lameness/unsoundness rate entry in the test with pigs (estimated previous rate about 25 to 30%) is listed as “zero”.

In the case of `[B]` [boron], the “Piglet weight at 12 days of age” value in test [1] (pilot study, sows given oral 1 mg boron per kg body weight, non-supplemented 8.0 pounds) came out at 8.5 pounds. This compound gave a Pre-weaning mortality in test [1] (pilot study, sows given oral 1 mg boron per kg body weight, non-supplemented 23%, preliminary, first 600 pigs) of 16%. Also, in test [1] (setting [5]), the “Piglet quality (uniformity, growth, general thrift)” value is on record as “improved” and the “Pre-weaning piglet mortality (observation)” value is “reduced”. In addition, the “Joint health vs basal diet (FIG. 1)” value in test [2] (25 mg/kg boron as borax vs basal diet) was “healthier joints”. In addition, in test [2] (25 ppm boron in feed (as borax), unsupplemented group 57%), the “Growth plate lesions associated with widening, share of tissues” value turned out to be 19%. Moreover, the “Articular cartilage lesions (necrosis, hemorrhage, infarction, or streaks), share of tissues” value in test [2] (25 ppm supplemental B in feed, unsupplemented pigs 21%) is listed as 4%. Also, the “TBlue staining intensity of cartilage (semi-quantitative sGAG content)” value in test [2] (boron supplemented group vs unsupplemented) was “consistently higher”. Besides, in test [2] (growing swine, boron supplementation), the “Incidence of osteochondrosis-associated lameness” value is “effective in reduction”. Further, the Occurrence of osteochondrosis entry in test [2] (pigs, supplemental boron 25 ppm to 50 ppm (FIGS. 1, 3, 4)) is “significant reduction”. Moreover, in the test with sows and piglets (one pig of about 85 pounds kept on boron 50 ppm plus ascorbate 125 ppm), the “Joint findings at necropsy” value is reported as “No abnormalities were observed”. In addition, in the test with crossbred pigs (50 ppm added B in feed, 28 days, no added B 33.4, p 0.017), the “Phosphorus Digestibility (%)” value was found to be 36.3%. In addition, the “Phosphorus excretion in Feces (g/Kg gain)” value in the test on crossbred pigs (50 ppm added B in feed, 28 days, no added B 88.1, p 0.028) stood at 74.6 g/Kg gain. The “Reduction of phosphorus excretion per unit of production” value in the test on crossbred pigs (boron added to the diet vs no added boron) came out at 15%. For the same compound, in test [3] (setting [6]), the “Clinical Lameness Score: count of pigs Normal” value stood at 5 and the “Clinical Lameness Score: count of pigs with Visible Lameness” value was determined as 0. In addition, in test [3] (supplemental boron, no 3-NPB), the “Prevalence and severity of osteochondrosis lesions in shoulder, stifle, hock and elbow joints” value is “lowest prevalence of lesions and the lowest severity”. In the test on sows and their litters, the “Effect on litter size at birth” value is given as “no effects” and the “Effect on piglet birth weight” value is given as “no effects”. Besides, the “Likelihood to conceive relative to control sows” value in the test on sows and their litters (p=0.04) stood at 1.2 times. Moreover, in the test with sows and their litters (p=0.047), the “Return to estrus, average days quicker than control sows” value stood at 1.6 days. The “sGAG concentration in cartilage (dry matter basis)” value in test [4] was determined as 11050 ng/g.
